Results: patent KR20240014570A, “양전하성 응집-유도 방출 화합물 및 이의 용도” (priority 2020, dated 2022)

Legend:
[1] = system: S.aureus (그람양성, ATCC 25923); test: Photodynamic antibacterial effect, agar plate colonies; format: cell-based; conditions: 1 μM; white light 25 mW/cm2, 10 min
[2] = system: Gram-negative bacteria (그람음성균): E.coli, ESBL-EC; format: cell-based; conditions: 1 μM; white light 25 mW/cm2, 10 min
[3] = system: all strains (모든 균주); test: Photodynamic antibacterial effect, all strains; format: cell-based; conditions: 3 μM, with or without white light
[4] = system: ESBL E.coli (ESBL-EC, 그람 음성, ATCC BAA-198); conditions: same conditions: 3 μM, white light 25 mW/cm2, 10 min
[5] = system: ESBL E.coli (ESBL-EC, 그람 음성, ATCC BAA-198); test: microbe, parasite or virus in culture; conditions: Escherichia coli, ATCCBAA198, 10 min, read-out: inhibition of ESBL-EC growth

SMILES | photodynamic antibacterial activity against Gram-positive bacteria [1] | photodynamic antibacterial effect against Gram-negative bacteria [2] | bacterial colonies [3] | photodynamic antibacterial effect [4] | inhibition at 3 µM [5]
C=Cc1c(C)c2cc3nc(c(CC(=O)O)c4[nH]c(cc5nc(cc1[nH]2)C(C)=C5CC)c(C)c4C(=O)O)C(CCC(=O)O)C3C (stereo not shown) [Ce6] | 광역학적 항균 활성을 보였지만 | 유의한 효과를 확인할 수 없었다 | – | – | –
C(=Cc1ccnc2ccccc12)c1ccc(-c2ccc(N(c3ccccc3)c3ccccc3)cc2)s1 [DQVTA] | – | – | 변하지 않음 | – | –
CN(C)c1ccc2nc3ccc(=[N+](C)C)cc-3sc2c1 [MB, 메틸렌 블루] | 광역학적 항균 활성을 보였지만 | 유의한 효과를 확인할 수 없었다 | – | 유의한 광역학적 항균 효과를 나타내지 않았고 | ~50%
